Data as given in US8846653B2, “Delta-tocotrienol treatment and prevention of pancreatic cancer” (University of South Florida, priority 2006, dated 2014).

Tests used:
Assay type in all cases: cell-based, human
[1] = system: SW1990 pancreatic cancer cells; test: MTS assay of SW1990 cultures, single 50 μM dose; conditions: SW1990, 50 μM
Outline: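 MTS-based viability was measured 24, 48 or 72 h after a single 50 μM treatment; the agents were α/β/γ/δ-tocotrienol, α/β-tocopherol, tocopherol succinate, geranylgeraniol or succinic acid. The cells were SW1990, cultured in 10% FBS DMEM. Vehicle (ethanol-extracted olive oil) cultures ran in parallel as reference.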

[2] = system: BXPC3 cells; test: MTT assay of BXPC3 cultures, single 50 μM dose; design: MTT assay result, run 1 / MTT assay result, run 2 / MTT assay result, run 3 / MTT assay result, run 4 / MTT assay result, run 5 / MTT assay result, run 6 / MTT assay result, run 7 / MTT assay result, av (average) / MTT assay result, av-blank / MTT assay result, av: unit not given here; conditions: BXPC3, 50 μM; for MTT assay result, av-blank: average minus blank; for MTT assay result, av (average) / MTT assay result, av: average of 7 runs
Outline: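 Viability measured by MTT assay 48 or 120 hours after one 50 μM treatment with tocol-family compounds, geranylgeraniol, succinic acid or vehicle, with untreated cultures in parallel. BXPC3 cells grown in FBS-supplemented medium, 37° C, humidified 5% CO2.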

[3] = system: MiaPaCa-2 cells; test: MTT assay of MiaPaCa2 cultures, single 50 μM dose; design: rel amt (relative value set to the control): unit not given here; conditions: MiaPaCa2, 50 μM; for MTT assay result, av-blank: average minus blank; for MTT assay result, av: average of 7 runs
Outline: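 Viability measured by MTT 48 or 120 hours post-treatment, with a vehicle-only (ethanol-extracted olive oil) culture as control. MiaPaCa-2 cultures received one 50 μM exposure to a tocotrienol, tocopherol, tocopherol succinate, geranylgeraniol or succinic acid.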

## Cc1c(C)c2c(c(C)c1OC(=O)CCC(=O)O)CC[C@@](C)(CCC[C@H](C)CCC[C@H](C)CCCC(C)C)O2 [TS, tocopherol succinate]
[1]; 24 hours
  rel amnt (relative value set to the control): 110
  MTS assay result, run 1: 0.155
  MTS assay result, run 2: 0.168
  MTS assay result, run 3: 0.164
  MTS assay result, run 4: 0.158
  MTS assay result, run 5: 0.155
  MTS assay result, run 6: 0.163
  MTS assay result, run 7: 0.165
  MTS assay result, run 8: 0.167
  MTS assay result, run 9: 0.162
[1]; 48 hours
  rel amnt (relative value set to the control): 104
  MTS assay result, run 1: 0.122
  MTS assay result, run 2: 0.166
  MTS assay result, run 3: 0.16
  MTS assay result, run 4: 0.135
  MTS assay result, run 5: 0.148
  MTS assay result, run 6: 0.174
  MTS assay result, run 7: 0.18
  MTS assay result, run 8: 0.173
  MTS assay result, run 9: 0.157
[1]; 72 hours
  rel amnt (relative value set to the control): 207
  MTS assay result, run 1: 0.998
  MTS assay result, run 2: 0.962
  MTS assay result, run 3: 1.02
  MTS assay result, run 4: 0.887
  MTS assay result, run 5: 0.936
  MTS assay result, run 6: 0.897
  MTS assay result, run 7: 0.85
  MTS assay result, run 8: 0.801
  MTS assay result, run 9: 0.918
[2]; 48 hours
  rel amt (relative value set to the control): 100
  MTT assay result, av-blank: 0.229
  MTT assay result, av (average): 0.278
  MTT assay result, run 1: 0.271
  MTT assay result, run 2: 0.274
  MTT assay result, run 3: 0.296
  MTT assay result, run 4: 0.271
  MTT assay result, run 5: 0.282
  MTT assay result, run 6: 0.274
  MTT assay result, run 7: 0.277
[2]; 120 hours (5 days)
  rel amt (relative value set to the control): 17
  MTT assay result, av-blank: 0.097
  MTT assay result, av: 0.152
  MTT assay result, run 1: 0.192
  MTT assay result, run 2: 0.127
  MTT assay result, run 3: 0.142
  MTT assay result, run 4: 0.162
  MTT assay result, run 5: 0.116
  MTT assay result, run 6: 0.129
  MTT assay result, run 7: 0.199
[3]; 48 hours
  rel amt (relative value set to the control): 48
  MTT assay result, av-blank: 0.148
  MTT assay result, av: 0.194
  MTT assay result, run 1: 0.215
  MTT assay result, run 2: 0.184
  MTT assay result, run 3: 0.2
  MTT assay result, run 4: 0.187
  MTT assay result, run 5: 0.194
  MTT assay result, run 6: 0.19
  MTT assay result, run 7: 0.185
[3]; 120 hours (5 days)
  rel amt (relative value set to the control): 43
  MTT assay result, av-blank: 0.773
  MTT assay result, av: 0.825
  MTT assay result, run 1: 0.732
  MTT assay result, run 2: 0.776
  MTT assay result, run 3: 0.786
  MTT assay result, run 4: 0.714
  MTT assay result, run 5: 0.939
  MTT assay result, run 6: 0.859
  MTT assay result, run 7: 0.968

## alpha tocotrienol [T3 alpha]
[1]; 24 hours
  rel amnt (relative value set to the control): 121
  MTS assay result, run 1: 0.168
  MTS assay result, run 2: 0.183
  MTS assay result, run 3: 0.175
  MTS assay result, run 4: 0.148
  MTS assay result, run 5: 0.195
  MTS assay result, run 6: 0.176
  MTS assay result, run 7: 0.206
  MTS assay result, run 8: 0.172
  MTS assay result, run 9: 0.178
[1]; 48 hours
  rel amnt (relative value set to the control): 116
  MTS assay result, run 1: 0.168
  MTS assay result, run 2: 0.162
  MTS assay result, run 3: 0.16
  MTS assay result, run 4: 0.146
  MTS assay result, run 5: 0.175
  MTS assay result, run 6: 0.205
  MTS assay result, run 7: 0.2
  MTS assay result, run 8: 0.187
  MTS assay result, run 9: 0.175
[1]; 72 hours
  rel amnt (relative value set to the control): 61
  MTS assay result, run 1: 0.279
  MTS assay result, run 2: 0.282
  MTS assay result, run 3: 0.29
  MTS assay result, run 4: 0.238
  MTS assay result, run 5: 0.302
  MTS assay result, run 6: 0.279
  MTS assay result, run 7: 0.25
  MTS assay result, run 8: 0.254
  MTS assay result, run 9: 0.273
[2]; 48 hours
  rel amt (relative value set to the control): 104
  MTT assay result, av-blank: 0.236
  MTT assay result, av (average): 0.285
  MTT assay result, run 1: 0.279
  MTT assay result, run 2: 0.275
  MTT assay result, run 3: 0.295
  MTT assay result, run 4: 0.301
  MTT assay result, run 5: 0.3
  MTT assay result, run 6: 0.273
  MTT assay result, run 7: 0.275
[2]; 120 hours (5 days)
  rel amt (relative value set to the control): 97
  MTT assay result, av-blank: 0.558
  MTT assay result, av: 0.613
  MTT assay result, run 1: 0.584
  MTT assay result, run 2: 0.637
  MTT assay result, run 3: 0.594
  MTT assay result, run 4: 0.63
  MTT assay result, run 5: 0.62
  MTT assay result, run 6: 0.61
  MTT assay result, run 7: 0.618
[3]; 48 hours
  rel amt (relative value set to the control): 94
  MTT assay result, av-blank: 0.292
  MTT assay result, av: 0.338
  MTT assay result, run 1: 0.349
  MTT assay result, run 2: 0.341
  MTT assay result, run 3: 0.356
  MTT assay result, run 4: 0.329
  MTT assay result, run 5: 0.349
  MTT assay result, run 6: 0.316
  MTT assay result, run 7: 0.323
[3]; 120 hours (5 days)
  rel amt (relative value set to the control): 84
  MTT assay result, av-blank: 1.528
  MTT assay result, av: 1.580
  MTT assay result, run 1: 1.497
  MTT assay result, run 2: 1.573
  MTT assay result, run 3: 1.569
  MTT assay result, run 4: 1.55
  MTT assay result, run 5: 1.811
  MTT assay result, run 6: 1.589
  MTT assay result, run 7: 1.47
